{"source": "PubChem BioAssay AID743259", "about": "(The Scripps Research Institute Molecular Screening Center, 2014)", "note": "Calls of active or inactive are those of the source. No rule for the calls is given here."}
{"target": "Disintegrin and metalloproteinase domain-containing protein 10 (Homo sapiens) (UniProt O14672)", "sequence (O14672 214-748 limits assumed)": "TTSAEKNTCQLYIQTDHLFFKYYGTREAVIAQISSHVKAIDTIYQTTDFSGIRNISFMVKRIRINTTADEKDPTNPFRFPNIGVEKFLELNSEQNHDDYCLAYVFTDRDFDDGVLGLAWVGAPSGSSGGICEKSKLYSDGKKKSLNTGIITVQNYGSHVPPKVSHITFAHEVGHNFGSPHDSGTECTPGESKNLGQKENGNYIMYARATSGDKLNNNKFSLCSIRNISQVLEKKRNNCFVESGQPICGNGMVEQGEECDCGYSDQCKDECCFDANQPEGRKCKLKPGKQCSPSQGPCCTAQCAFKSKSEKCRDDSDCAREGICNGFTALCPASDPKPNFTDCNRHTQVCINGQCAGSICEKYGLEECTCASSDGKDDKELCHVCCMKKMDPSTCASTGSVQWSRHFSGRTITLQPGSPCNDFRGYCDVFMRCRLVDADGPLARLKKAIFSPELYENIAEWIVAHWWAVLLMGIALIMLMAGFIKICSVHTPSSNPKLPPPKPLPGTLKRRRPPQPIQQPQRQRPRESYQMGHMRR", "assay": "ADAM10 protease inhibitors, dose response, selectivity assay for ADAM17 exosite inhibitor project, biochemical, FRET peptide substrate, recombinant human ADAM10 (AID 743259)", "settings": "Recombinant ADAM10, FRET peptide substrate cleavage"}
{"compound": "CCOc1ccc(NC(=O)CC2SC(=O)N(c3ccccc3)C2=O)cc1", "note": "(centres undefined)", "IC50": "inactive"}
{"compound": "C=C(C)CN1CCN(S(=O)(=O)c2ccc(C)c(N(C)S(=O)(=O)c3ccc(C)cc3)c2C)CC1", "IC50": "> 69.5 µM (inactive)"}
{"compound": "CC(C)(C)c1ccc(OCc2nc(-c3ccccn3)no2)c(Br)c1", "IC50": "inactive"}
{"compound": "COC(=O)c1cccc(Cn2c(Cl)c(/C=N/Nc3ccccc3C)sc2=O)c1", "IC50": "> 69.5 µM (inactive)"}
{"compound": "COc1ccc(N(CC(O)Cn2c3ccccc3c3ccccc32)S(=O)(=O)c2ccccc2)cc1", "note": "(centres undefined)", "IC50": "> 69.5 µM (inactive)"}
{"compound": "O=C1OCCN1C(=O)[C@H]1[C@H](c2ccc([N+](=O)[O-])cc2)C(c2ccccc2)=NN1c1ccc(Br)cc1", "IC50": "> 69.5 µM (inactive)"}
{"compound": "Oc1c(C(c2ccccn2)N2CCCCC2)cc(Cl)c2cccnc12", "note": "(centres undefined)", "IC50": "9.05 µM"}
{"compound": "CC(=O)c1cccc(NC(=O)C(OC(=O)c2ccccc2NS(=O)(=O)c2cccs2)c2ccccc2)c1", "note": "(centres undefined)", "IC50": "> 69.5 µM (inactive)"}
{"compound": "CC(=NNC(=O)CSc1nnc(-c2ccc(C(C)(C)C)cc2)n1-c1ccccc1)c1cccc2ccccc12", "IC50": "> 69.5 µM (inactive)"}
{"compound": "Cc1cc(SCC(=O)c2ccc(O)c(O)c2)n2nc(C)c(-c3ccccc3)c2n1", "IC50": "> 69.5 µM (inactive)"}
{"compound": "CCCOC(=O)c1ccc(Oc2cn[nH]c2-c2ccc(OCC)cc2O)cc1", "IC50": "inactive"}
{"compound": "COCCN=c1scc(-c2cc(OC)c(OC)c(OC)c2)n1/N=C/c1c(C)[nH]c2ccccc12", "IC50": "> 69.5 µM (inactive)"}
{"compound": "C/C(=N\\N=C(/N)SC1CC(=O)N(c2ccc(Br)cc2)C1=O)c1cccs1", "note": "(centres undefined)", "IC50": "inactive"}
{"compound": "Cc1ccccc1NC(C)C(=O)N/N=C/c1ccccc1OCc1cccc(Br)c1", "note": "(centres undefined)", "IC50": "> 69.5 µM (inactive)"}
{"compound": "COc1cccc(C2C(C#N)=C(N)Oc3c2oc(CO)cc3=O)c1", "note": "(centres undefined)", "IC50": "> 69.5 µM (inactive)"}
{"compound": "O=C(NCC1CCCO1)C(c1cccs1)N(Cc1ccccc1)C(=O)c1ccc(-c2ccccc2)[nH]1", "note": "(centres undefined)", "IC50": "> 69.5 µM (inactive)"}
{"compound": "O=C(CC1SC(=O)N(c2ccccc2)C1=O)Nc1ccccc1", "note": "(centres undefined)", "IC50": "inactive"}
{"compound": "C/C(=N\\N=C(/N)SC1CC(=O)N(c2ccccc2)C1=O)c1cccs1", "note": "(centres undefined)", "IC50": "9.96 µM"}
{"compound": "COCCN=c1scc(-c2cc(OC)ccc2OC)n1/N=C/c1c[nH]c2ccccc12", "IC50": "> 69.5 µM (inactive)"}
